According to ChEMBL document CHEMBL5727242, “N-Methylbenzimidazoles as mIDH1 inhibitors” (2019):

Assay: Biological Assay: Mutant IDH1 R132H Biochemical Assay mIDH1 catalyzes the NADPH-dependent reduction of alpha-ketoglutarate (a-KG) to (2R)-2-hydroxyglutarate (2-HG). NADPH consumption was measured by luminescent readout.The biochemical reactions were performed at 32° C. in 384-well plates using a reaction volume of 41 μL and the following assay buffer conditions: 50 mM Tris pH 7.5, 100 mM NaCl, 20 mM MgCl2, 0.05% BSA, 0.01% Brij, 1 μM NADPH, and 250 μM α-KG. The IDH1 R132H enzyme was used in a final concentration of 1.5 nM. Test compounds were used in a concentration range between 0.002 and 10 μM. The final DMSO concentration was 2.4%.The reaction was incubated for 30 minutes, then 40 μL of detection mix (0.75 μg/ml Luciferase, 0.02 U/ml Oxidoreductase, 4 μg/mL FMN, 2 μL/ml decanal/ethanol, 50 mM Tris pH 7.5, 0.5% Glycerin, 0.01% Tween-20, 0.05% BSA) was added. Luminescence was measured on a luminescent reader (10 seconds measuring time, 1 second integration period, 30% sensitivity). The decrease in luminescence is proportional to mIDH1 activity. IC50 values are determined by interpolation from plots of relative luminescence versus inhibitor concentration.

COC(=O)c1ccc2c(c1)nc(Nc1ccc(OC(F)(F)F)cc1)n2[C@@H]1C[C@H](C)CC[C@H]1C(C)C showed an IC50 of 38 nM.
